Source: patent publication US20240226211A9, “SEAWEED EXTRACTS, ISOLATED COMPOUNDS, AND METHODS OF TREATMENT” (University of Florida Research Foundation, Incorporated, priority 2017, published 2024)

Tests used:
[1] = test system: NQO1; assay: qPCR of NQO1 transcript in IMR-32 cells; assay type: cell-based, human; conditions: 12 h
Method: The cells were seeded in 6-well format (see immunoblot) and treated with a solvent control (DMSO, 1%, v/v), isolated compounds, or extracts for 12 h. The RNeasy Mini Kit (Qiagen) was used to collect total RNA from cells, while for mouse tissue, TRIzol reagent (Invitrogen) was used. In each case, total RNAs (2 μg) were reverse-transcribed into cDNAs, which were used as templates for TaqMan gene expression assay (Applied Biosystems) and detected using the 7300 Real-Time PCR System (Applied Biosystems). Each qPCR sample was tested in triplicate as a 25 μL total reaction volume (12.5 μL of Taqman 2× universal master mix, 1.25 μL of a 20× TaqMan gene expression assay probe, 1 μL of the above cDNA, and 10.25 μL of RNase-free sterile water). The qPCR method was designed as following: 50° C. for 2 min, 95° C. for 10 min, and 40 cycles of 95° C. for 15 s and 60° C. for 1 min. Endogenous controls used included GAPDH for IMR-32 cells and β-actin to normalize for RAW264.7 cells and mouse tissues.

[2] = assay type: physicochemical
Method: Silver oxide (14.2 mg) was added to a solution of cymopol 1 (6.6 mg) in dichloromethane (2.5 mL). The reaction mixture was stirred at room temperature for 15 min before being evaporated in vacuum. The crude product was purified by preparative TLC plate (ethyl acetate/hexane 1:4, v/v, Rf 0.8) to give 4.92 mg product 5 (75% yield).

[3] = molecular target: T1, full-length human recombinant KEAP1 (Homo sapiens, UniProt Q14145); assay: LC-MS/MS mapping of cysteine adducts on recombinant KEAP1; assay type: binding; conditions: excess CymQ
T1 construct: cysteine residues of full-length human recombinant KEAP1 in vitro
T1 sequence (Q14145 whole entry): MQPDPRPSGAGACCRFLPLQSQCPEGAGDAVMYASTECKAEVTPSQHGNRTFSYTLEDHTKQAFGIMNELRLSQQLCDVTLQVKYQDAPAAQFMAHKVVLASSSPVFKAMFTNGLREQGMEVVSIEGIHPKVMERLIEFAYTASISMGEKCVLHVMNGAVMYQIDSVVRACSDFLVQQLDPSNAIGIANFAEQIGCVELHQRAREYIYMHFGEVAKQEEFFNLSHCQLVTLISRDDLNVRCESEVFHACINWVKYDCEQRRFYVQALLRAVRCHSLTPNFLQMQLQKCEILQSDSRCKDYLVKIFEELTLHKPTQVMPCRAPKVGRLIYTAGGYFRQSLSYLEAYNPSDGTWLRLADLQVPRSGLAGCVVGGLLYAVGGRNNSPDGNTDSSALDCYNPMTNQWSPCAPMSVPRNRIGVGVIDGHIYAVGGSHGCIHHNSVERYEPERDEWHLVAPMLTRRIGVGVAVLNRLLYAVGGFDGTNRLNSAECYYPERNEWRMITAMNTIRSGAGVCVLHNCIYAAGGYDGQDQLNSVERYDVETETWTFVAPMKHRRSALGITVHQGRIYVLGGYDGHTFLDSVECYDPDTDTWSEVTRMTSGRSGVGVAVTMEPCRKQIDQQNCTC
Text: To obtain a global picture of cysteine modification of Keap1, rather than focusing on known functionally relevant residues, a proteomics approach was utilized, monitoring the effect of activated cymopol (CymQ) on cysteine residues of full-length human recombinant KEAP1 in vitro, similarly as described [Wang R, et al. (2013) In vitro and in vivo characterization of a tunable dual-reactivity probe of the Nrf2-ARE pathway. ACS Chem Biol 8(8):1764-1774; Hur W, et al. (2010) A small-molecule inducer of the antioxidant response element. Chem Biol 17(5):537-547]. Briefly, KEAP1 was treated with excess CymQ and adducts were mapped by LC-MS/MS in three separate experiments (five different conditions) using DTT, chymotrypsin and trypsin as the variables for different sample preparations, in order to capture more potential adducts. The most abundant modification observed was a mass increase of 242, resulting from an addition-elimination reaction of 5 (FIGS. 54 and 55) with loss of bromine, which is unique to CymQ compared with tBQ. Additional representative spectra for different types of tags can be found in SI Appendix, Fig. S4. […] Most ARE activators belong to class 1 of this cysteine code where Cys151 is readily modified, although contradictory results are shown for these compounds based on the experimental conditions used. […]

[4] = test system: ARE-luciferase reporter (human NQO1-ARE) in IMR-32 cells; assay: ARE-luc reporter assay in IMR-32 cells; assay type: cell-based; conditions: relative to Compounds 1 and 2; assay not specified
Text: The ARE-luciferase reporter construct (ARE-luc) contains the core sequence of human NQO1-ARE1. The mock plasmid (pcDNA3-mRFP) was purchased from Addgene (plasmid 13032). The following plasmids were reported by Zhang et a/.2003 [Zhang, D. D., and Hannink, M. (2003) Distinct cysteine residues in Keap1 are required for Keap1-dependent ubiquitination of Nrf2 and for stabilization of Nrf2 by chemopreventive agents and oxidative stress. Mol. Cell. Biol. 23, 8137-8151]. The Keap1-CBD plasmid carries the entire open reading frame (ORF) of human Keap1 fused to the chitin binding domain (CBD) of the Bacillus circulans chitinase A1 gene upstream of the Keap1 stop codon. Oligonucleotide-directed mutagenesis was used to generate the Keap1-C151S-CBD and Keap1-C288S-CBD plasmids. The HA-Cul3 plasmid was constructed by fusing an N-terminal hemagglutinin (HA) tag with a cDNA sequence coding for amino acids 1-380 of human Cul3 gene. The Gal4-Neh2 expression vector contains the codons for the first 97 amino acids (Neh2 domain) of human Nrf2 fused to the ORF of the Gal4 DNA-binding domain
An ARE-luciferase reporter plasmid and CMV-GFP plasmid (to monitor transfection efficiency) were co-transfected into a human androgen-sensitive prostate cancer cell line, LNCaP (6×10^4 cells/well), and a human neuroblastoma cell line, IMR-32 (3×10^4 cells/well), using Fugene® HD (Roche Diagnostics) in 96-well format. […] J Biol Chem. 2002; 277:388-394; Lee J M, Hanson J M, Chu W A, Johnson J A. Phosphatidylinositol 3-kinase, not extracellular signal-regulated kinase, regulates activation of the antioxidant-responsive element in IMR-32 human neuroblastoma cells. […] After 24 hours of incubation, cells were treated with extracts from Cymopolia barbata, a negative control (DMSO, 1%, v/v), and a positive control ([…] sulforaphane, SF, and tert-butylhydroquinone, tBHQ, respectively.) 24 hours post-treatment, luciferase activity was detected using BriteLite detection reagent (PerkinElmer). […]

| Molecule | Nqo1 transcript induction by quinone versus hydroquinone counterpart [1] | stability in air [2] | alkylation of highly reactive cysteines including Cys151 [3] | number of KEAP1 cysteines modified [3] | anti-oxidant efficacy [4] |
| --- | --- | --- | --- | --- | --- |
| cymopol quinone [Compound 5] | retained the bioactivity | not stable in air | failed to alkylate | 10 |  |
| CC12CCC(Br)C(C)(C)C1Cc1cc(O)c(Br)cc1O2 (stereo not drawn) [Compound 3, 2,6-dibromo-1,1,4a-trimethyl-2,3,4,4a,9,9a-hexahydro-1H-xanthen-7-ol] |  |  |  |  | reduced anti-oxidant efficacy |
| C=C1CCC(Br)C(C)(C)C1Cc1cc(OC)c(Br)cc1O (stereo not drawn) [Compound 4, 5-bromo-2-((3-bromo-2,2-dimethyl-6-methylenecyclohexyl)methyl)-4-methoxyphenol] |  |  |  |  | reduced anti-oxidant efficacy |
